Assay results published in US4230702A, “Readily enterally absorbable pharmaceutical compositions of per se poorly enterally absorbable pharmacologically active agents” (priority 1978, dated 1980).
Where two headings read alike, the source gives them in different places.

What was measured:
[1] = Oral toxicity (LD50) of solutions in partial glycerides versus suspension in aqueous tylose; settings: guinea pig, in vivo, female guinea pigs
Experimental: For testing the toxicity, solutions of g-strophanthin, proscillaridin A or medrogestone in various mixtures of mono-and diglycerides of long chain fatty acids and comparative formulations of the same pharmacologically active agents suspended in a tylose solution in water are administered orally to female guinea pigs of 250 to 300 g body weight by means of an oral feeding tube.

[2] = Blood (serum) level of benzarone, comparison of areas beneath the blood level curves; format: in vivo, rat; settings: 1000 mg/kg oral, rats, solution in Rilanit GMO compared with aqueous suspension, up to 15 hours
Experimental: For determining the blood level values, a dose of 1000 mg/kg of benzarone in form of a solution in Rilanit GMO^4) and in form of a suspension in water are administered to rats by means of an oral feeding tube.
Subsequently every two hours including the 10th hour, 8 animals of each group, and after 15 hours, 4 more animals of each group are sacrificed and their blood is recovered by means of a cordial cut. The amount of benzarone in the serum is determined spectrophotometrically. The measured blood level values are plotted on a graph and the areas beneath the resulting blood level curves are compared.

[3] = Renal excretion of benzarone, comparison of areas beneath the curves; format: in vivo, rat; settings: 1000 mg/kg oral, rats, solution in Rilanit GMO compared with aqueous suspension, 15 hours
Experimental: Furthermore doses of 1000 mg/kg of benzarone in the form of a solution in Rilanit GMO^4) and in form of a suspension in water are orally administered to rats by means of an oral feeding tube. The urine of the animals is collected every 2 hours over a period of 15 hours and the amount of the excreted benzarone therein is determined spectrophotometrically. The measured values are plotted on a graph and the areas beneath the resulting curves are compared.

[4] = Renal excretion of carbon-14 labelled progesterone, cumulative urinary 14C; format: in vivo, guinea pig; settings: 20 mg/kg oral; for Cumulative Renal Excretion of Progesterone: guinea pigs
Experimental: For determining the renal excretion, a dose of 20 mg/kg of carbon-14 labelled progesterone in the form of solutions in various mixtures of partial glycerides of long chain fatty acids and a comparative formulation wherein the progesterone is suspended in an aqueous tylose solution are administered orally to female guinea pigs having an average body weight of about 300 g. The urine of the animals is collected every 24 hours and the ^14 C-content in equal amounts of the urine is determined. The cumulated amount of excreted material is shown in Table II below in % of the administered dose. The percentage of excreted material is about 83% for the solution of progesterone in Peceol.

[5] = solution in Peceol (mono, di, and triglycerides of oleic acid), read-out: LD50 in Peceol
[6] = suspended in tylose (methylcellulose) solution in water, read-out: LD50 in Tylose
[7] = solution in Witafrol 7470 (mono- and diglycerides of oleic acid), read-out: LD50 in Witafrol 7470

With `CC(=O)[C@@]1(C)CC[C@H]2[C@@H]3C=C(C)C4=CC(=O)CC[C@]4(C)[C@H]3CC[C@@]21C` [medrogestone] the LD50 [1, 5] was 850 mg/kg, the LD50 ([1]; solution in Rilanit GMO (mono- and diglycerides of oleic acid), read-out: LD50 in Rilanit GMO) was 862 mg/kg and the LD50 [1, 6] was 1470 mg/kg.

`CC1OC(OC2CC(O)C3(CO)C4C(O)CC5(C)C(C6=CC(=O)OC6)CCC5(O)C4CCC3(O)C2)C(O)C(O)C1O` (stereo not shown) [g-strophanthin] showed an LD50 [1, 5] of 8.38 mg/kg, an LD50 [1, 7] of 8.28 mg/kg and an LD50 [1, 6] of 34.8 mg/kg.

With `C[C@@H]1O[C@@H](O[C@@H]2C=C3CC[C@@H]4[C@H](CC[C@]5(C)[C@@H](c6ccc(=O)oc6)CC[C@]45O)[C@@]3(C)CC2)[C@H](O)[C@H](O)[C@H]1O` [proscillaridin A] the LD50 [1, 5] was 7.77 mg/kg, the LD50 [1, 7] was 6.81 mg/kg and the LD50 [1, 6] was 12.3 mg/kg.

For `CCc1oc2ccccc2c1C(=O)c1ccc(O)cc1` [benzarone, 2-ethyl-3-(4-hydroxybenzoyl)benzofuran], the “increase of the concentration of benzarone in the serum (comparison of areas beneath blood level curves)” value [2] was 257% and the “increase of the renal excretion of benzarone (comparison of areas beneath the curves)” value [3] was 437%.

In the case of `CC(=O)[C@H]1CC[C@H]2[C@@H]3CCC4=CC(=O)CC[C@]4(C)[C@H]3CC[C@]12C` [progesterone], the “percentage of excreted material” value ([4]; female guinea pigs, 14C-progesterone, solution in Peceol, % of the administered dose) was “about 83%”, the “amount of excreted material relative to the suspension in the tylose solution” value ([4]; female guinea pigs, solution in Peceol versus tylose suspension) was “about twice as high” and the “Cumulative Renal Excretion of Progesterone” value (“Cumulative Renal Excretion” for short) ([4]; Peceol X1, 1. day) was 46.0 % of the Administered Dose. The “Cumulative Renal Excretion” value ([4]; Peceol X1, 2. day) was 64.6 % of the Administered Dose, the “Cumulative Renal Excretion” value ([4]; Peceol X1, 3. day) was 71.6 % of the Administered Dose and the “Cumulative Renal Excretion” value ([4]; Peceol X1, 4. day) was 76.1 % of the Administered Dose. For the same molecule, the “Cumulative Renal Excretion” value ([4]; Peceol X1, 5. day) was 79.1 % of the Administered Dose, the “Cumulative Renal Excretion” value ([4]; Peceol X1, 6. day) was 81.1 % of the Administered Dose and the “Cumulative Renal Excretion” value ([4]; Peceol X1, 7. day) was 82.9 % of the Administered Dose. For the same molecule, the “Cumulative Renal Excretion” value ([4]; Softigen 701, 1. day) was 51.6 % of the Administered Dose, the “Cumulative Renal Excretion” value ([4]; Softigen 701, 2. day) was 63.2 % of the Administered Dose and the “Cumulative Renal Excretion” value ([4]; Softigen 701, 3. day) was 66.2 % of the Administered Dose. For the same molecule, the “Cumulative Renal Excretion” value ([4]; Softigen 701, 4. day) was 66.9 % of the Administered Dose, the “Cumulative Renal Excretion” value ([4]; Softigen 701, 5. day) was 67.4 % of the Administered Dose and the “Cumulative Renal Excretion” value ([4]; Softigen 701, 6. day) was 67.6 % of the Administered Dose. For the same molecule, the “Cumulative Renal Excretion” value ([4]; Softigen 701, 7. day) was 67.7 % of the Administered Dose, the “Cumulative Renal Excretion” value ([4]; Tegin 0, 1. day) was 37.9 % of the Administered Dose and the “Cumulative Renal Excretion” value ([4]; Tegin 0, 2. day) was 48.7 % of the Administered Dose. The “Cumulative Renal Excretion” value ([4]; Tegin 0, 3. day) was 51.6 % of the Administered Dose, the “Cumulative Renal Excretion” value ([4]; Tegin 0, 4. day) was 52.3 % of the Administered Dose and the “Cumulative Renal Excretion” value ([4]; Tegin 0, 5. day) was 52.6 % of the Administered Dose. For the same molecule, the “Cumulative Renal Excretion” value ([4]; Tegin 0, 6. day) was 52.8 % of the Administered Dose, the “Cumulative Renal Excretion” value ([4]; Tegin 0, 7. day) was 52.9 % of the Administered Dose and the “Cumulative Renal Excretion” value ([4]; Tegomuls X10, 1. day) was 42.5 % of the Administered Dose. The “Cumulative Renal Excretion” value ([4]; Tegomuls X10, 2. day) was 58.3 % of the Administered Dose, the “Cumulative Renal Excretion” value ([4]; Tegomuls X10, 3. day) was 69.2 % of the Administered Dose and the “Cumulative Renal Excretion” value ([4]; Tegomuls X10, 4. day) was 75.2 % of the Administered Dose. For the same molecule, the “Cumulative Renal Excretion” value ([4]; Tegomuls X10, 5. day) was 78.8 % of the Administered Dose, the “Cumulative Renal Excretion” value ([4]; Tegomuls X10, 6. day) was 80.6 % of the Administered Dose and the “Cumulative Renal Excretion” value ([4]; Tegomuls X10, 7. day) was 81.9 % of the Administered Dose. The “Cumulative Renal Excretion” value ([4]; Tegomuls X17, 1. day) was 43.7 % of the Administered Dose, the “Cumulative Renal Excretion” value ([4]; Tegomuls X17, 2. day) was 55.0 % of the Administered Dose and the “Cumulative Renal Excretion” value ([4]; Tegomuls X17, 3. day) was 62.0 % of the Administered Dose. The “Cumulative Renal Excretion” value ([4]; Tegomuls X17, 4. day) was 66.6 % of the Administered Dose, the “Cumulative Renal Excretion” value ([4]; Tegomuls X17, 5. day) was 70.0 % of the Administered Dose and the “Cumulative Renal Excretion” value ([4]; Tegomuls X17, 6. day) was 71.9 % of the Administered Dose. For the same molecule, the “Cumulative Renal Excretion” value ([4]; Tegomuls X17, 7. day) was 73.9 % of the Administered Dose, the “Cumulative Renal Excretion” value ([4]; Tylose, 1. day) was 29.7 % of the Administered Dose and the “Cumulative Renal Excretion” value ([4]; Tylose, 2. day) was 39.1 % of the Administered Dose. For the same molecule, the “Cumulative Renal Excretion” value ([4]; Tylose, 3. day) was 43.0 % of the Administered Dose, the “Cumulative Renal Excretion” value ([4]; Tylose, 4. day) was 44.0 % of the Administered Dose and the “Cumulative Renal Excretion” value ([4]; Tylose, 5. day) was 44.5 % of the Administered Dose. For the same molecule, the “Cumulative Renal Excretion” value ([4]; Tylose, 6. day) was 46.2 % of the Administered Dose and the “Cumulative Renal Excretion” value ([4]; Tylose, 7. day) was 46.4 % of the Administered Dose.
